Experiments:
Type in all cases: in vivo
[1] = tested on: Pseudomonas aeruginosa ATCC 27853; test: Mouse IN neutropenic lung burden model, Lynovex/lactose study; conditions: 24 h post-infection
Procedure: (§1) Assessment of Efficacy of Lynovex (Cysteamine) Prep in a Mouse IN Neutropenic model of Pseudomonas aeruginosa ATCC 27853 (Lung Burden Model)
(§2) Animals were immunosuppressed/pre-conditioned with either 200 mg/kg or 150 mg/kg cyclophosphamide. Lynovex, chemical name cysteamine, and vehicle were either prepared either as Lynovex and lactose vehicle, or Lynovex and mannitol-based vehicle (both provided by Upperton (Upperton product)). These were prepared for treatment and vehicle-control alone respectively, and in combination. Tobramycin was prepared as an inhalation formulation in lactose. All treatments were administered using a Penn Century device. Phosphate buffered saline (PBS) and Pseudomonas selective agar were required for bacterial tissue burden.
(§3) Male CD1 mice (n=6 for treatment groups, plus five in pre-treatment group, totalling 35 mice) were used in this study. On day −4, the mice were immunosuppressed/pre-conditioned with 200 mg/kg cyclophosphamide intraperitoneally; and with 150 mg/kg cyclophosphamide intraperitoneally on day −1. An infection was established with P. aeruginosa ATCC27853, with an inoculum of 5×10^6 cfu/ml, administered intranasally in a volume of 40 μl following anaesthetisation with a ketamine/xylazine anaesthetic cocktail for 15 minutes, for the Lynovex prepared in lactose study, and an inoculum of 4×10^6 for the Upperton Lynovex product.
All treatments were administered intratracheally using a Penn Century device.
Lynovex (cysteamine) was administered at 1.5 mg alone, and in combination with lactose at the following concentrations: Lynovex 0.75 mg+2.25 mg lactose powder, Lynovex 1.5 mg+1.5 mg lactose powder, Lynovex 2.25 mg+0.75 mg, along with a vehicle only control of 3 mg lactose. In addition, Tobramycin at 188 μg/dose was administered, as an inhaled formulation which was mixed with lactose to aid measurement. The treatments were administered approximately 5 minutes after infection.
(§4) The lung tissue burden of each animal, at the clinical end point of 24 h post-infection, was determined. The lungs were homogenised in 2 ml PBS, serially diluted in PBS and plated onto Pseudomonas selective agar before quantification after 24-48 h at 37° C.

[2] = tested on: Pseudomonas aeruginosa ATCC 27853; test: Mouse IN neutropenic lung burden model, Lynovex Upperton product (mannitol-based) study; conditions: 0.188 mg inhalation formulation, intratracheal, 24 h post-infection; highly variable burdens
Procedure: as §1, §2
Male CD1 mice (n=6 for treatment groups, plus five in pre-treatment group, totalling 35 mice) were used in this study. On day −4, the mice were immunosuppressed/pre-conditioned with 200 mg/kg cyclophosphamide intraperitoneally; and with 150 mg/kg cyclophosphamide intraperitoneally on day −1. […]
as §4

[3] = Mouse weights before and after infection; conditions: P. aeruginosa infected neutropenic CD1 mice, Upperton product study (FIG. 6)
Procedure: as §3
In a different study, Lynovex was administered at the following doses: 3 mg 5% Lynovex and 3 mg 10% Lynovex. Lynovex in combination with Tobramycin as follows: 3 mg 5% Lynovex+Tobramycin 0.188 mg in 1.5 mg vehicle, 3 mg 10% Lynovex+Tobramycin 0.188 mg in 1.5 mg Vehicle (mannitol-based, provided by Upperton) and a Tobramycin only control (0.188 mg/dose in lactose vehicle). The treatments were administered once approximately 10 minutes after infection.
Additionally, mouse weights were recorded before and after infection. Mice treated with vehicle, Lynovex monotherapy or Tobramycin monotherapy lost weight following infection. […]

NCCS [Lynovex, cysteamine]
mice clearing the infection to below the detection limit ([1]; 1.5 mg intratracheal): 5/6
lung burden compared to vehicle ([1]; 1.5 mg intratracheal, P=0.0072): reduced the lung burden
mice clearing the infection to below the detection limit ([1]; 2.25 mg intratracheal): 4/6
lung burden compared to vehicle ([1]; 2.25 mg intratracheal, P=0.0349): reduced the lung burden

NC[C@H]1O[C@H](O[C@H]2[C@H](O)[C@@H](O[C@H]3O[C@H](CO)[C@@H](O)[C@H](N)[C@H]3O)[C@H](N)C[C@@H]2N)[C@H](N)C[C@@H]1O [Tobramycin]
animals that cleared the infection to below the limit of detection ([1]; 0.188 mg inhalation formulation, intratracheal): 5/6
lung burden compared with vehicle-treated mice ([1]; 0.188 mg inhalation formulation, intratracheal, CD1 mice, P=0.0097 Kruskal Wallis test): statistically significant reduction in lung burden
average reduction in lung burden compared with vehicle-treated mice [2]: 1.61 log10 cfu/g
mouse weight following infection [3]: lost weight

Reference: US10905660B2, “Microparticles” (NovaBiotics Limited, priority 2016, dated 2021)
